pEC50, pIC50: −log10 of the molar value. Where two headings read alike, the source gives them in different places.
Assays:
[1] = test system: Aβ oligomer induced changes in membrane trafficking in 21 DIV primary rodent neuronal cultures; experiment: Membrane trafficking assay (MTT) in primary neuronal cultures treated with oligomeric Aβ; assay type: cell-based; details: read-out: MTT ASSAY EC50
Method: Seven drug candidates (A0101-A0107) (FIG. 2) were tested in a primary cell biological screening assay capable of measuring Aβ oligomer induced changes in membrane trafficking in 21 DIV primary rodent neuronal cultures (see Izzo et al., PLoS ONE 9(11):e111899, 2014). Briefly, cultures were treated with either oligomeric Aβ or oligomeric Aβ plus a candidate compound for 24 hours. Non-Aβ treated cells served as a negative control. Next, a non-membrane permeable dye (MTT) was added to the dishes for 1 hour, during which time the dye can be internalized by endocytosis. At the end of the hour, the dye containing media was removed, the dishes were rinsed extensively with isotonic buffer, and finally, the washed cells were extracted with a Triton X-100 buffer to solubilize membranes and release the dye, which is quantitated.

[2] = Caco-2 A-B and B-A permeability test; assay type: in vitro ADME; details: human
Method: Subsequently, Caco-2 A-B and B-A permeability tests (pH 7.4) were performed on the […]-107 molecules in order to assess their human intestinal permeability and drug efflux. This assay measures the […] rate of transport of a compound across the Caco-2 cell line that is derived from a human colon carcinoma. The cells have characteristics that resemble intestinal epithelial cells such as the formation of a polarized monolayer, well-defined brush border on the apical surface and intercellular junctions.

[3] = target: Human Ether-á-go-go-Related-Gene channel (hERG) (Homo sapiens, UniProt Q12809); experiment: hERG cellular patch-clamp assay (cardiac toxicity)
Chain of Human Ether-á-go-go-Related-Gene channel (hERG) (Q12809 whole entry): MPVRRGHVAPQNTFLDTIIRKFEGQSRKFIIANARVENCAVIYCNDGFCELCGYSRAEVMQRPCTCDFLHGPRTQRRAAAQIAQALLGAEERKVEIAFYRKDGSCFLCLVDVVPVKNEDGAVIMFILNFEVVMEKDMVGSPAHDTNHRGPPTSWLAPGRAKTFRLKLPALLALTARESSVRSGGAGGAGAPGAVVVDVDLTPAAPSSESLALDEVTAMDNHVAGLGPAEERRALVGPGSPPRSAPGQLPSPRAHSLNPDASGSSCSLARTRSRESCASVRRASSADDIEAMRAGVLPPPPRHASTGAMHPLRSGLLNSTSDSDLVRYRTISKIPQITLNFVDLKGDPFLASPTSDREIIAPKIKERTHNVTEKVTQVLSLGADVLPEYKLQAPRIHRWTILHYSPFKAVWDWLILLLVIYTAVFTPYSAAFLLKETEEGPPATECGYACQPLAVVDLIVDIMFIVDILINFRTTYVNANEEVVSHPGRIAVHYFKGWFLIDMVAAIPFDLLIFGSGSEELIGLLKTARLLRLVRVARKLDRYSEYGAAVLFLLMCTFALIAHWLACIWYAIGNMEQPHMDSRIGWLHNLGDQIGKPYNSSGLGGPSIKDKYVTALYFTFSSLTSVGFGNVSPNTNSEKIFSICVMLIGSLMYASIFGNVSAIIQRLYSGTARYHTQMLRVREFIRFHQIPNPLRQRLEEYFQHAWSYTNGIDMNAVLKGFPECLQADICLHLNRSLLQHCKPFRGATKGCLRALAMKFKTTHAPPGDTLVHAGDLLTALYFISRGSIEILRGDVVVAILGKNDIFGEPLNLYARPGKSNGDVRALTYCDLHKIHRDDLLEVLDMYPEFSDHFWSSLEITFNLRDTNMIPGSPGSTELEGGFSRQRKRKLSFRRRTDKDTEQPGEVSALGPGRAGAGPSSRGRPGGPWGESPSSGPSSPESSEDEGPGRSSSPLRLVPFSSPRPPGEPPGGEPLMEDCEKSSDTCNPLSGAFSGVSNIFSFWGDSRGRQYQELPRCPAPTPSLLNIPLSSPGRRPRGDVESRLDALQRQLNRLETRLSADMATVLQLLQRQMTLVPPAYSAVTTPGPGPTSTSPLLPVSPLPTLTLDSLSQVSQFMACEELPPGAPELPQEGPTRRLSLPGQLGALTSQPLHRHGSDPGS
From the text: Contract laboratories provided screening of hERG ion channel cell lines as an indicator of cardiac safety. […] Cellular “patch-clamp” assays provide the data required by ICH guidelines.

[4] = target: wild type Aβ42 (Homo sapiens, UniProt P05067); experiment: IMS-MS assay for Aβ42 oligomer formation (arrival time distributions); details: for Aβ42 wt dodecamer formation (overall conclusion): 10 μM in 10 mM ammonium acetate
Chain of wild type Aβ42 (P05067 672-713 limits assumed): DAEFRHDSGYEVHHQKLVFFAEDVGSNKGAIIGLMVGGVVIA
Method: A physiologically relevant solution of Aβ42 and a drug candidate was incubated for varying periods of time and then loaded into a special spray capillary and the solution nano-electrosprayed, captured by an ion funnel, transported, dehydrated and continuously fed into a quadrapole mass analyser, and detected. This process yielded a mass spectrum. In order to obtain either structural or oligomeric information, the ions were next stored at the end of the funnel and then pulse injected at low energy into a drift cell filled with helium gas and subjected to a low electric field to transport the ions through the cell. The quadrapole is set to pass a particular mass to charge ratio (m=z), and an arrival time distribution (ATD) of the ions at this m=z is obtained at the detector (see, e.g., Bernstein et al., Journal of the American Chemical Society, 127(7):2075-2084, 2005). All molecules were at a concentration of 10 μM in 10 mM ammonium acetate.
By collecting Arrival Time Distributions (ATDs) of each of these charge states, ions of the same mass-to-charge (m/z) ratio were separated by their size and shape.
Using kinetic theory and parameters of the experiment, arrival times are related to an ion's mobility in the drift cell, which is inversely proportional to the ion's collision cross section. Oligomer formation is shown for dimer (n=2) up to dodecamer (n=12) for the z/n=−5/2 charge state.
For example, the peak in z/n=−3 ATD with a collision cross section of 698 Å^2 corresponds to a less compact solution-phase monomer structure. The peak of 642 Å^2 corresponds to a more compact gas phase structure.

[5] = Caco-2, apical to basolateral, pH 7.4, read-out: A-B perm
[6] = Caco-2, basolateral to apical, pH 7.4, read-out: B-A perm

Row | Compound | pEC50 [1] | Papp A→B [2, 5] [×10⁻⁶ cm/s] | Papp B→A [2, 6] [×10⁻⁶ cm/s] | pIC50 [3] | also measured
1 | CN(C)C(=O)C(c1ccccc1)N1CCN(c2ccc(O)cc2)CC1 (centres unmarked) [AC0103, 2-[4-(4-hydroxyphenyl)piperazin-1-yl]-N,N-dimethyl-2 phenylacetamide] | 5.89 | 61.6 | 39.7 | < 5.00 | 
2 | CN(C)Cc1ccc(CNCc2ccc3c(c2)OCCO3)cc1 [AC0102, (2,3-dihydro-1,4-benzodioxin-6-ylmethyl)({4[(dimethylamino)methyl]-phenyl}methyl)amine] | 5.46 | 30 | 4.5 | < 5.00 | 
3 | CC(=O)Nc1ccc(CNCCc2cccc(Cl)c2)cc1 [AC0101, N-[4-({[2-(3-chlorophenyl)ethyl]amino}methyl)phenyl]acetamide] | 5.41 | 101 | 41.6 | 5.10 | hERG inhibition (in words) ([3]; summary of Table 2, 4th column): moderate potency
4 | Cc1cc(CN2CC=C(c3ccc(O)cc3)CC2)no1 [AC0106, 4-{1-[(5-methyl-1,2-oxazol-3-yl)methyl]-1,2,3,6tetrahydropyridin-4-yl}phenol] | 6.00 | 74.4 | 42.3 | < 5.00 | 
5 | CC(C)NCC(O)COc1cccc2ccccc12 (centres unmarked) [propranolol, reference compound] |  | 60.6 | 24.2 |  | 
6 | N#Cc1ccc(CNCc2cccc(CN3CCCC3)c2)cc1 [AC0107, 4-[({[3-(pyrrolidin-1-ylmethyl)phenyl]methyl}amino)methyl]benzonitrile] | 6.35 | 18.4 | 6.5 | < 5.00 | relative amounts of earlier arriving structures in z/n=−4 ATD ([4]; 1:10 Aβ42 wt to compound, day 2): reduces; wild type Aβ42 dodecamer formation ([4]; 1:10 Aβ42 wt to compound, day one): inhibited; Aβ42 hexamer growth ([4]; IMS-MS): slowing hexamer growth; Aβ42 wt dodecamer formation (overall conclusion) ([4]; IMS-MS): inhibitor of Aβ42 wt dodecamer formation; dodecamer formation in z/n=−5/2 ATD ([4]; after 29 hours): still inhibited; earlier arriving structures in z/n=−3 ATD ([4]; between 26 and 30 hours incubation time): disappear
7 | CNC(=C[N+](=O)[O-])NCCSCc1ccc(CN(C)C)o1 [ranitidine, reference compound] |  |  |  |  | Papp A→B ([2]; Caco-2, pH 7.4): 0.7 ×10⁻⁶ cm/s; Papp B→A ([2]; Caco-2, pH 7.4): 3.5 ×10⁻⁶ cm/s
8 | COc1cc2c(c(OC)c1OC)-c1ccc(OC)c(=O)cc1[C@@H](NC(C)=O)CC2 [colchicine, reference compound] |  | 0.1 | 13.9 |  | 
9 | C[C@@H](NCCCc1cccc(C(F)(F)F)c1)c1cccc2ccccc12 [Cinacalcet, reference compound] |  |  |  |  | Aβ42 wt dodecamer formation (overall conclusion) ([4]; IMS-MS): did not inhibit
10 | N#Cc1cccc(CNCc2ccc(CN3CCOCC3)cc2)c1 [AC0104, 3-[({[4-(morpholin-4 ylmethyl)phenyl]methyl}amino)methyl]benzonitrile] | 6.15 | 59.4 | 13.9 | < 5.00 | 

Source: US11827582B2, “Substituted amines as disrupters of ABETA42 oligomer formation” (ACELOT, INC., priority 2017, dated 2023)
